These results are taken from article PMC12583827, “Harnessing microbial-derived metabolites in the urinary tract to prevent infection induced catheter encrustation” (Nature Communications, 2025).

Structures are written as SMILES. “Also recorded” adds a separate entry of the source. Where a name gives a salt, the structure may show the parent alone. Read-outs that look alike come from different tables or passages of the source.

The target of series [1] is T1, P. mirabilis urease (Proteus mirabilis, UniProt P17086).
T1 construct: it utilizes whole bacterial cells, rather than isolated enzyme preparations; endogenous in cells; host or cells: Proteus mirabilis HI4320, live whole cells
T1 sequence (P17086 whole entry): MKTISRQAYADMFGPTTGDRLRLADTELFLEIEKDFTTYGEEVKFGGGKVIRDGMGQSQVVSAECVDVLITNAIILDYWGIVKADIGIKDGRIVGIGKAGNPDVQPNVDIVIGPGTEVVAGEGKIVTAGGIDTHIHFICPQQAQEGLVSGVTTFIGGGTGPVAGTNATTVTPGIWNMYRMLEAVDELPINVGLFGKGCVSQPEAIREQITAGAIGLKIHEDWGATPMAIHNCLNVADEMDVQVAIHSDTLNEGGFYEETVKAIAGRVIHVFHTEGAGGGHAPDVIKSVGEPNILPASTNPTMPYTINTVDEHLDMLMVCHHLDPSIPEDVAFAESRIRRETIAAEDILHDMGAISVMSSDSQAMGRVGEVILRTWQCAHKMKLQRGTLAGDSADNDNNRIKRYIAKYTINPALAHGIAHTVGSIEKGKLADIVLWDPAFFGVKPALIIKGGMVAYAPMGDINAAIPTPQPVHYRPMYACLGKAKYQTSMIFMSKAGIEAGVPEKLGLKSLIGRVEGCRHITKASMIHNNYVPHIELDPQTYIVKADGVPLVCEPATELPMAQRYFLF
T1 sequence (P17088 whole entry, further chain): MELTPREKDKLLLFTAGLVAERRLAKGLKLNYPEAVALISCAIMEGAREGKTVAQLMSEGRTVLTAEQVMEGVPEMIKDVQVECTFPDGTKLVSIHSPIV
T1 sequence (P17087 whole entry, further chain): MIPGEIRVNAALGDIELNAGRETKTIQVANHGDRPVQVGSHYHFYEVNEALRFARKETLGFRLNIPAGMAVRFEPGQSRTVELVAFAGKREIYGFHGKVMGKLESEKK
The class given is cell-based. The settings on record: for Urease dampening activity: screen of candidate metabolites, * Trending but not statistically significant; for effect on P. mirabilis urease activity (whole cell): potassium phosphate buffer, dose response.
Description: (§1) Urease activity was measured as described previously in triplicate with at least three biological replicates[21]. Briefly, bacteria were cultured for ~18 h in LB broth, concentrated to an OD600 of 4, washed once in saline, and diluted (1:10 for P. mirabilis and 1:50 for P. stuartii and M. morganii) into candidate dampening metabolites in potassium phosphate buffer or human urine pH7 and supplemented with 500 mM urea and 0.01% phenol red. Bacterial suspensions were distributed into a 96-well plate, incubated at 37 °C with double-orbital shaking in a Synergy H1 plate reader (BioTek), and absorbance (OD562) was measured every 60 seconds for 180 minutes. Isogenic urease mutants (Supplementary Data 1) served as negative controls for P. mirabilis and P. stuartii and a vehicle control served as a negative control for M. morganii.

For series [2], the target named is T2, urease of P. mirabilis HI4320 cell free extracts (Proteus mirabilis, UniProt P17086).
T2 construct: 20ul of cell-free extract were distributed into a 96-well plate in place of the whole cell bacterial suspensions; endogenous in cells; host or cells: Proteus mirabilis HI4320, urea-induced; freeze-thaw and sonication lysate, clarified supernatant
T2 sequence (P17088 whole entry): as the sequence (P17088 whole entry, further chain) above
T2 sequence (P17086 whole entry): as the sequence (P17086 whole entry) above
T2 sequence (P17087 whole entry, further chain): as the sequence (P17087 whole entry, further chain) above
Format: biochemical. On the procedure: To measure urease activity of the cell free extracts of P. mirabilis, P. mirabilis was cultured for ~18 h in LB broth and then sub cultured until it reached mid-log growth phase (OD600 0.2-0.5). Cultures were spun down to pellet at 10,000 rcf for 10 minutes and resuspended in saline to a final OD600 of 1.0. Cultures were then diluted 1:10 in potassium phosphate buffer pH7 supplemented with 500 mM urea and incubated at 37 °C with shaking for 1 h to induce its urease enzyme production. The isogenic urease mutant Pm ureF::kan (Supplementary Data 1) served as negative control. Cultures then were spun down to pellet at 10,000 rcf for 10 minutes and resuspended in 2 mL saline. Cultures were subjected to four cycles of freezing in liquid nitrogen and thawing in a 37 °C water bath. Cultures were then probe sonicated (on ice) at 25% amplitude for 10 sec. Sonicated cultures were centrifuged at 18,900 Xg for 5 min and supernatants were transferred to a clean tube and stored on ice. To measure urease activity of cell free extracts, the previously described assay was modified such that 20ul of cell-free extract were distributed into a 96-well plate in place of the whole cell bacterial suspensions. Acetohydroxamic acid (AHA), was used as a positive control. Percent of maximum urease activity was calculated using Area Under the Curve (AUC) relative to untreated cell free extracts of P. mirabilis.

In series [3] the target is T3, Jack Bean Urease (JBU) (Canavalia ensiformis, UniProt P07374).
T3 construct: purchased Sigma-Aldrich
T3 sequence (P07374 whole entry, looked up): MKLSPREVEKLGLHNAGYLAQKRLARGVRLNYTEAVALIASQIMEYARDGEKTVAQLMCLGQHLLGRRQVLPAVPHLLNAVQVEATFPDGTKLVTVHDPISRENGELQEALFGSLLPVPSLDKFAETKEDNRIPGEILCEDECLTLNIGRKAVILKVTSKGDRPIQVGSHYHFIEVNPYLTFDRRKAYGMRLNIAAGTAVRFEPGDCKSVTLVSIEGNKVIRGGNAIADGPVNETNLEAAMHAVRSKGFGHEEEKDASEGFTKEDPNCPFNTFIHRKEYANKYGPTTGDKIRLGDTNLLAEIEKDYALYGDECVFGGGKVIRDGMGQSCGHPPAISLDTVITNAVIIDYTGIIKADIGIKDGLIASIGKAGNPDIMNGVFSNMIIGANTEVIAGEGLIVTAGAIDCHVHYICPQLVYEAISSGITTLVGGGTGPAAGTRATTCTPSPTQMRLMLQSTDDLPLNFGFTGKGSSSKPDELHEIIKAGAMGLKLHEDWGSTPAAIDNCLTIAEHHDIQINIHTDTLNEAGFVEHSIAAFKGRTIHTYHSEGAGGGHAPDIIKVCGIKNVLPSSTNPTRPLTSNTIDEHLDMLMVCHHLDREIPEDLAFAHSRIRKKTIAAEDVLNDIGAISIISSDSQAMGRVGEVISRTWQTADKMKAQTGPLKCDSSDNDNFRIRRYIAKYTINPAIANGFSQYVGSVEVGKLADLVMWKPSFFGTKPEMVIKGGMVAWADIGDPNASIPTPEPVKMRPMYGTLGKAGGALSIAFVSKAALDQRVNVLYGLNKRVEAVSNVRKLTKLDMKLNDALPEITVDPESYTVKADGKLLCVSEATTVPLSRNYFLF
The class given is biochemical. The following applies: 0.1 U JBU, 500 mM urea. On the procedure: To measure Jack Bean urease activity, the previously described assay was modified such that 0.1 U (1U liberates 1 µmol of ammonia from urea per minute) of JBU (Sigma-Aldrich urease from Canavalia ensiformis) were distributed into a 96-well plate in place of the bacterial suspensions. Acetohydroxamic acid (AHA), was used as a positive control and a vehicle control was used as a negative control. Percent of maximum urease activity was calculated using Area Under the Curve (AUC) relative to untreated bacteria of interest or untreated JBU. Urease activity measurement in MRSA was adapted from a recently published semi quantitative assay (See Supplementary materials for details)[48].
414 Supplementary Figure 13. Microbial metabolites dampen activity of purified Jack Bean
415 Urease (JBU). 0.1 U of JBU (1U liberates 1 µmol of ammonia from urea per minute) was
416 incubated at 37 °C with shaking in urease-dampening metabolites, 500mM urea, and phenol red.
417 A urea analogue, AHA, served as the positive control for inhibition of JBU. Absorbance
418 (OD562) was measured every 60 seconds for 90 minutes, and activity is expressed as percent of
419 maximum activity (% Max Activity) relative to untreated JBU. Graphs show mean±SD for 3
420 independent experiments with 3 technical replicates each. Data were analyzed by two tailed one
421 sample t-test to a hypothetical value of 100% activity. ***P<0.001, **P<0.002, *P<0.033.
(1 picture or pasted object on this page, not shown here)

Series [4] has as its target T4, urease of P. mirabilis cell free extracts (Proteus mirabilis, UniProt P17086).
T4 construct: 20ul of cell-free extract were distributed into a 96-well plate in place of the whole cell bacterial suspensions; endogenous in cells; host or cells: Proteus mirabilis HI4320, urea-induced; freeze-thaw and sonication lysate, clarified supernatant
The class given is biochemical. The settings on record: for type of urease inhibition: Michaelis-Menten parameters, Lineweaver-Burke plot. On the procedure: For the kinetic analysis of the urease reaction in the presence of urease dampening metabolites, urease activity assays were repeated with the P. mirabilis cell free extracts. Six different inhibitor concentrations that gave linear rates of reaction over a period of 120 min were tested for their effects on urease activity in the presence of urea concentrations ranging from 0 to 500 mM. Simple linear regression was performed on the absorbance (OD562) over 120 minutes for each condition and plotted as Initial velocity (slope) vs urea concentration. These initial hyperbolic plots were converted to double-reciprocal Lineweaver-Burke plots, and the pattern of inhibition inferred from the point of intersection of the lines. Finally, the Ki for a particular compound was determined by plotting the Km/Vmax ratio (the slope of the Lineweaver-Burke plots) of each line as a function of the inhibitor concentration as described by ref. [49]. The X-intercept corresponded to –Ki.

A short description of series [5]: Buffering capacity assay (NaOH titration, phenol red). The class given is physicochemical. The following applies: high concentrations of metabolite in potassium phosphate buffer with phenol red. As to the method:
Known concentrations of sodium hydroxide were added to each well of a 96 well plate in combination with candidate dampening metabolite of interest buffered 1:10 in potassium phosphate buffer pH7. 0.01% phenol red was added to each well, and absorbance (OD562) was measured in a Synergy H1 plate reader (BioTek).

Series [6] has as its target T1, P. mirabilis urease. Format: cell-based. The settings on record: for Compound 1 %I alone: kphos. On the procedure:
To assess the synergistic effects of dampening metabolites when used in combination with each other, P. mirabilis urease activity was measured as described above. Between 4-6 different concentrations for each dampening metabolite were tested both alone and in combination (See Fig. 6a for example). […] To account for variability between experiments, all conditions tested were performed on a single 96-well plate with three technical replicates for each condition. To compare between biologic replicates, percent inhibition relative to untreated P. mirabilis was calculated for each condition using the average area under the curve over 120-180 minutes (so that the positive control activity curve saturated without any increase in the negative control curve).
Statistical analysis was conducted using a one sample T test of the combination index compared to a hypothetical value of 1 (additive effect). […] Therefore, combination indexes were calculated using a desired effect size less than 40% were indicated with an * in Fig. 6b and in Supplementary Data 5.

In series [7] the test system is P. mirabilis catheter biofilms. Description: Antibiotic testing in the in vitro “bladder” model. The class given is cell-based, Proteus mirabilis. The following applies: 1ug/mL ceftriaxone added at 24 h. As to the method:
The glass “bladder” system assembly, inoculation and sample collection were performed as described above. At 24 h post inoculation glass “bladders” were supplied with media containing the same metabolite (or AUM only control) with or without 1 µg/mL ceftriaxone sodium salt hydrate (Cayman Chemical Company, Michigan, USA). Samples were then collected from the catheter port at 27, 30, 33, 36 and 48 h to monitor pH and bacterial CFUs. After 48 h, the catheters were carefully removed, sectioned and assessed for bacterial viability as detailed in Supplementary Methods.

For series [8], the system named is P. mirabilis urease operon (ureABC, ureEDF). The series is described as follows: Real-time quantitative PCR of urease operon. The class given is cell-based, Proteus mirabilis. The settings on record: 15-minute incubation, 500 mM urea. On the procedure:
P. mirabilis was cultured for ~18 h in LB broth and then sub cultured until it reached mid-log growth phase (OD600 0.2-0.5). Cultures were spun down to pellet at 10,000 rcf for 10 minutes and resuspended in saline to a final OD600 of 1.0. Cultures were then diluted 1:10 into dampening metabolites buffered 1:10 in potassium phosphate buffer pH7 and supplemented with 500 mM urea. P. mirabilis in potassium phosphate buffer without urea served as a negative control. Cultures were incubated in potassium phosphate buffer with and without dampening metabolites at 37 °C with shaking for 15 minutes. RNA isolation, cDNA synthesis and RT qPCR were performed as described previously. […] A RNA integrity analysis using agarose gel electrophoresis on extracted RNA was performed for all samples to confirm no change in transcript stability (Supplementary Fig 16A). The data were analyzed according to the Relative Quantification (RQ) method by Pfaffl et al. 2001[54] (See Supplementary Information).
168 Real-time quantitative PCR analysis. The data were analyzed according to the Relative
169 Quantification (RQ) method by Pfaffl et al 2001 (56) in which P. mirabilis potassium phosphate
170 buffer without urea was considered as the ‘Control’ and P. mirabilis in potassium phosphate
171 buffer supplemented with 500mM urea with and without candidate dampening compounds were
172 the ‘Sample.’ The full equation is below.
(E )ΔCPtarget (control−sample)
174 Relative Quantification Ratio = target Equation 2
(Ereference)ΔCPreference (control−sample)
176 In this equation, E refers to the primer efficiency of the target gene (Etarget, urease operon
177 subunits) or the reference gene (Ereference, rpoA), and CP refers to the Cycle Point, or the cycle
178 number at which the signal exceeds the threshold. […]
183 for whole genome sequencing on the Illumina NextSeq2000 platform. Read trimming, and run
184 analytics were performed using Trimmomatic v0.39.0 (62). The processed reads were assembled
185 using spades v3.15.5 (63) wrapped in Unicycler v0.5.0 (64, 65). Read mapping was done using […]

In series [9] the test system is M. morganii urease. The series is described as follows: Urease activity assay, whole cell M. morganii TA43. The class given is cell-based, Morganella morganii.
Description: as §1
In series [10] the test system is P. stuartii urease. The series is described as follows: Urease activity assay, whole cell P. stuartii BE2467. Format: cell-based, Providencia stuartii.
Description: as §1
Series [11] has as its system UTI MRSA urease. The series is described as follows: UTI MRSA urease activity assay. Format: cell-based, Staphylococcus aureus. The following applies: whole cell, urease broth. As to the method: 190 Omega and visualization was carried out using ESPript 3.0 (69), enabling comparison across
191 different clinical isolates. Urease genes, including the full operon from ureA to ureR, were
192 identified and extracted from the prokka annotated genomes. The extracted protein sequences
193 were subjected to sequence alignment using Clustal Omega and visualization was carried out
194 using ESPript 3.0 [8], enabling comparison across different clinical isolates.
195 UTI MRSA urease activity assay. The UTI MRSA urease assay was adapted from a recently-
196 published semi quantitative assay to measure urease activity in bacterial species with low overall
197 activity under standard conditions (50). Dampening metabolites were directly dissolved in urease
198 broth (1 g tryptone (RPI; CAS No. 91079-40-2), 1 g D(+)-glucose (RPI; CAS No. 50-99-7), 2 g
199 potassium phosphate monobasic anhydrous (VWR; Lot: 20C1356567), 5 g sodium chloride
201 of MilliQ water, pH 5.5, sterilized via autoclaving). UTI MRSA strains from overnight cultures
202 were harvested by centrifugation for 5 minutes at 10,000 g, washed with 1 volume of 1X
203 Phosphate Buffered Saline (PBS), and resuspended in urease broth. Bacterial cultures were […]
205 measured at 415 nm, 560 nm, and 600 nm every 20 mins for 24 hours, shaking at 37°C using a
206 BioTek Synergy|H1 microtiter plate reader. Urease activity was calculated by dividing the OD […]

Setting [12] is: highest concentration tested 20mM.

T4 sequence (P17086 whole entry): as the sequence (P17086 whole entry) above
T4 sequence (P17088 whole entry, further chain): as the sequence (P17088 whole entry, further chain) above
T4 sequence (P17087 whole entry, further chain): as the sequence (P17087 whole entry, further chain) above

Regarding `O=C(O)[C@@H](O)Cc1cnc[nH]1` [L-imidazole lactate, L-imidazolelactic acid], the Urease dampening activity entry in series [1] (setting [12]) is “Yes”. The “urease activity of cell free P. mirabilis extracts” value in series [2] was “at least partially inhibiting”. In series [3], the JBU activity result is “inhibited”. In series [4], the “change of estimated Km on addition of metabolite” value is given as “increase”, the “change of estimated Vmax on addition of metabolite” value is given as “decrease” and the “type of urease inhibition” value is reported as “mixed inhibitors”. In series [5], the “buffering capacity: absorbance (OD562) across NaOH concentrations” value was “consistent reduction in absorbance compared to the control”. The “Compound 1 %I alone” value in [6] (Compound 1 [] alone 25, assay date 2024 08 07) is 36.6%. Moreover, the “Compound 1 %I alone” value in series [6] (Compound 1 [] alone 37.5, assay date 2024 08 09) is listed as 56.9%. Further, in [6] (Compound 1 [] alone 50, assay date 2024 08 07), the “Compound 1 %I alone” value is 58.1%.

On to `CO/N=C(\C(=O)N[C@@H]1C(=O)N2C(C(=O)O)=C(CSc3nc(=O)c(=O)[nH]n3C)CS[C@H]12)c1csc(N)n1` [ceftriaxone, ceftriaxone sodium salt hydrate], for which the “AUM pH compared to the control “bladder”” value in series [7] was “no impact on pH”. Further, in series [7] (effluent, 48 h), the “reduction in CFU/mL by the end of the experiment” value is given as 3 log.

For `c1c[nH]cn1` [imidazole, Imidazole], in [1] (biosynthetic pathway/functional group screen, highest concentration tested 20mM), the Dampens urease activity result is listed as “Yes”. Further, the “effect on P. mirabilis urease activity (whole cell)” value in series [1] was “additional hits”. In series [2], the “urease activity of cell free P. mirabilis extracts” value was “at least partially inhibiting”. In addition, in series [3], the JBU activity entry was “inhibited”. Moreover, in [4], the “change of estimated Km on addition of metabolite” value is recorded as “increase”, the “change of estimated Vmax on addition of metabolite” value is “decrease” and the “type of urease inhibition” value is recorded as “mixed inhibitors”. For the same compound, in series [5], the “buffering capacity: absorbance (OD562) across NaOH concentrations” value is listed as “consistent reduction in absorbance compared to the control”.

In the case of `O=C(O)C(=O)Cc1ccccc1` [phenylpyruvate, Sodium phenylpyruvate monohydrate], in series [1], the “effect on P. mirabilis urease activity (whole cell)” value is given as “reproducibly decreased; also recorded: only modest activity”. In series [1] (setting [12]), the Urease dampening activity entry is on record as “Yes”. In addition, the JBU activity entry in [3] is listed as “did not inhibit; also recorded: no activity”. In addition, in series [8], the “ureE and ureF transcript levels” value is reported as “modestly increased”. Also, the “urease activity in M. morganii” value in series [9] is given as “no activity”. Besides, the “urease activity in P. stuartii” value in [10] is listed as “no activity”. For the same compound, the “urease activity in MRSA” value in series [11] was “most potent urease inhibition”. Moreover, in series [6], the “concentrations required to achieve a significant combination index” value is > 50 mM.
